Literature values, collected in patent publication US20090202995A1, “MOLECULAR CARDIOTOXICOLOGY MODELING” (priority 2005, published 2009).
Like-named read-outs stand apart in the source and are kept apart here.

Experiments:
heart tissue [1] = details: known designation used to train the model, at the dose, time and route of Table 3
heart tissue [2] = tested on: heart tissue
heart tissue [3] = tested on: heart tissue; remark: listed apart in the source
heart tissue [4] = tested on: heart tissue; remark: listed apart in the source
heart tissue [5] = details: known designation used to train the model, at the dose, time and route of Table 3; remark: listed apart in the source
heart tissue [6] = details: known designation used to train the model, at the dose, time and route of Table 3; remark: listed apart in the source
[7] = known tox (1) / non-tox (−1) designation used to train the model, at the dose, time and route of Table 3
[8] = known designation used to train the model, at the dose, time and route of Table 3

Row | SMILES | Heart Failure (heart tissue [1]) | General (heart tissue [2]; [7]) | Arrhythmia (heart tissue [3]; [8]) | Myocardial Necrosis (heart tissue [4]; [8]) | Vasculature Agent (heart tissue [5]) | Andrenergic Agonist (heart tissue [6]) | General (heart tissue [2]; rat, in vivo) | Arrhythmia (heart tissue [3]; rat, in vivo) | Myocardial Necrosis (heart tissue [4]; rat, in vivo)
1 | Cn1nnc2c(C(N)=O)ncn2c1=O [Temozolomide] | −1 | −1 | −1 | −1 | – | – | – | – | –
2 | N=C(N)c1ccc(OCCCCCOc2ccc(C(=N)N)cc2)cc1 [Pentamidine] | −1 | 1 | 1 | −1 | – | – | – | – | –
3 | COc1cccc2c1C(=O)c1c(O)c3c(c(O)c1C2=O)C[C@@](O)(C(=O)CO)C[C@@H]3O[C@H]1C[C@H](N)[C@@H](O)[C@H](C)O1 [Epirubicin] | 1 | 1 | 1 | −1 | −1 | −1 | – | – | –
4 | COc1cccc2c1C(=O)c1c(O)c3c(c(O)c1C2=O)C[C@@](O)(C(=O)CO)C[C@@H]3O[C@H]1C[C@H](N)[C@H](O)[C@H](C)O1 [Adriamycin] | 1 | 1 | −1 | 1 | −1 | −1 | – | – | –
5 | Nc1nc2c(ncn2COCCO)c(=O)[nH]1 [Acyclovir] | −1 | −1 | −1 | −1 | −1 | −1 | – | – | –
6 | N.N.[Cl][Pt][Cl] [Cisplatin] | −1 | 1 | 1 | 1 | −1 | −1 | – | – | –
7 | CC(C)(C)NCC(O)c1cc(Cl)c(N)c(Cl)c1 (stereo not shown) [Clenbuterol] | – | 1 | 1 | 1 | 1 | 1 | – | – | –
8 | NC[C@H](O)c1ccc(O)c(O)c1 [Norephinephrine] | −1 | 1 | 1 | 1 | – | 1 | – | – | –
9 | N.N.O=C([O-])C1(C(=O)[O-])CCC1.[Pt+2] [Carboplatin] | −1 | −1 | −1 | −1 | −1 | −1 | – | – | –
10 | NNc1nncc2ccccc12 [Hydralazine] | −1 | 1 | 1 | 1 | 1 | −1 | – | – | –
11 | Nc1cc(N2CCCCC2)nc(N)[n+]1[O-] [Minoxidil] | 1 | 1 | 1 | 1 | 1 | −1 | – | – | –
12 | CN(CCOc1ccc(CC2SC(=O)NC2=O)cc1)c1ccccn1 (stereo not shown) [Rosiglitazone] | 1 | 1 | – | – | – | – | – | – | –
13 | O=P1(N(CCCl)CCCl)NCCCO1 (stereo not shown) [Cyclophosphamide] | 1 | 1 | −1 | −1 | −1 | −1 | – | – | –
14 | O=C1CN(/N=C/c2ccc(-c3ccc([N+](=O)[O-])cc3)o2)C(O)=N1 [Dantrolene] | 1 | 1 | 1 | −1 | – | −1 | – | – | –
15 | CC(N)C(O)c1ccccc1 (stereo not shown) [Phenylpropanolamine] | −1 | 1 | 1 | – | – | – | – | – | –
16 | C[C@H]1C(=O)O[C@@H]2CCN3CC=C(COC(=O)[C@](C)(O)[C@]1(C)O)[C@H]23 [Monocrotaline] | – | – | – | – | – | – | 1 | −1 | −1
17 | ClC(Cl)(Cl)Cl [CCl4] | −1 | −1 | −1 | −1 | −1 | −1 | – | – | –
18 | CNC[C@H](O)c1ccc(O)c(O)c1 [Epinephrine] | −1 | 1 | 1 | 1 | −1 | 1 | – | – | –
19 | CC(C)NCC(O)c1ccc(O)c(O)c1 (stereo not shown) [Isoproterenol] | – | 1 | 1 | 1 | – | 1 | – | – | –
20 | NCCc1ccc(O)c(O)c1 [Dopamine] | – | 1 | 1 | −1 | −1 | 1 | – | – | –
21 | Fc1ccc([C@@H]2CCNC[C@H]2COc2ccc3c(c2)OCO3)cc1 [Paroxetine] | – | 1 | 1 | −1 | – | – | – | – | –
22 | NC(N)=Nc1nc(CSCCC(N)=NS(N)(=O)=O)cs1 [Famotidine] | −1 | 1 | 1 | −1 | −1 | −1 | – | – | –
